According to US9180122B2, “5- or 6-substituted 3-hydroxy-2 (1 H)-pyridinones as D-amino acid oxidase (DAAO) inhibitors in therapy of diseases such as schizophrenia, cognitive disorder and pain” (Takeda Pharmaceutical Company Limited, priority 2011, dated 2015):

Each compound was assayed against Human DAAO enzyme (Homo sapiens (Human), UniProt P14920) (assay: In Vitro DAAO Enzyme Assay (Amplex Red detection of H2O2 from D-Serine)). Settings: 10 mM D-Serine, 60 minutes at 25° C.
Chain of Human DAAO enzyme (P14920 whole entry): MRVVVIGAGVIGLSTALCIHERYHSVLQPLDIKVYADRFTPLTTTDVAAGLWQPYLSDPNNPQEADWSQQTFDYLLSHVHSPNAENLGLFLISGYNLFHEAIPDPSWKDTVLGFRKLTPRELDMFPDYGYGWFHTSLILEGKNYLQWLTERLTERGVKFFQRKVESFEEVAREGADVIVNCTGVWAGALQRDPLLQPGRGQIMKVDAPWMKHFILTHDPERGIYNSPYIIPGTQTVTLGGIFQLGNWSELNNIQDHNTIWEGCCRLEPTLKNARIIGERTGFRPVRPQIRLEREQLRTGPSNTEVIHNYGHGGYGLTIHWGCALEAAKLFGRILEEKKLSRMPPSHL
Assay type: biochemical
Description: The functional activity of compounds inhibiting the DAAO enzyme was determined by utilizing the co-product of the catalysis of D-Serine, H2O2 which can be quantitatively measured using the Amplex Red (Invitrogen) detection. Amplex® Red reagent is a colorless substrate that reacts with hydrogen peroxide (H2O2) with a 1:1 stoichiometry in the presence of […] to produce highly fluorescent resorufin (excitation/emission maxima=570/585 nm). The changes in fluorescence were monitored by a fluorescence plate reader, Envision (Perkin Elmer) and increases in DAAO activity were readily detected upon addition of D-Serine and suppression of this response observed with the application of test compounds.
The Km of D-Serine was measured for each enzyme batch to maintain consistency; this Km was used in subsequent assays.
On the day of the assay compounds were serially diluted in DMSO before being diluted 1:20 with assay buffer (20 mM Tris ph 7.4). A 5 μl portion of assay buffer was added to the wells of a 384 clear base black walled plate (Corning), 5 μl of diluted compound was then added via automated plate to plate transfer using the Bravo liquid handler (Agilent technologies) followed by 5 μl of human DAAO enzyme and then 5 μl D-Serine 50 mM was added to all but the negative control wells (final concentration of 10 mM). Finally 5 μl Amplex red reagent (Invitrogen) was added to all wells as per manufacturer's protocol. The plate was incubated for 60 minutes in the dark at 25° C. and the fluorescence in each well was measured in the Envision plate reader.
The IC50 values for compounds were determined from ten point half log scale dose-response studies and represent the concentration of compound required to […] 50% inhibition of DAAO activity in the presence of 10 mM D-Serine. Concentration response curves were generated using the average of duplicate wells for each data point and analyzed using nonlinear regression and four parameter curve fit.
O=c1[nH]cc(SCc2ccccc2)cc1O [Example 1, 5-(Benzylsulfanyl)-3-hydroxypyridin-2(1H)-one] gave an IC50 of 0.19 µM. O=c1[nH]cc(SCc2ccc(Cl)cc2)cc1O [Example 2, 5-[(4-Chlorobenzyl)sulfanyl]-3-hydroxypyridin-2(1H)-one] showed an IC50 of 0.035 µM. For Cc1ccc(CSc2c[nH]c(=O)c(O)c2)cc1 [Example 3, 3-Hydroxy-5-[(4-methylbenzyl)sulfanyl]pyridin-2(1H)-one], the IC50 was 0.029 µM. In the case of Cc1cccc(CSc2c[nH]c(=O)c(O)c2)c1 [Example 4, 3-Hydroxy-5-[(3-methylbenzyl)sulfanyl]pyridin-2(1H)-one], the IC50 is reported as 0.24 µM. With O=c1[nH]cc(SCc2cccc(Cl)c2)cc1O [Example 5, 5-[(3-Chlorobenzyl)sulfanyl]-3-hydroxypyridin-2(1H)-one] the IC50 was 0.055 µM. With CC(Sc1c[nH]c(=O)c(O)c1)c1ccccc1 (centres unmarked) [Example 6, 3-Hydroxy-5-[(1-phenylethyl)sulfanyl]pyridin-2(1H)-one] the IC50 was 1.3 µM. Compound O=c1[nH]cc(SCc2ccccc2Cl)cc1O [Example 7, 5-[(2-Chlorobenzyl)sulfanyl]-3-hydroxypyridin-2(1H)-one] has an IC50 of 0.21 µM. O=c1[nH]cc(SCc2cccc(C(F)(F)F)c2)cc1O [Example 8, 3-Hydroxy-5-{[3-(trifluoromethyl)benzyl]sulfanyl}pyridin-2(1H)-one] gave an IC50 of 0.19 µM. Cc1ccccc1CSc1c[nH]c(=O)c(O)c1 [Example 9, 3-Hydroxy-5-[(2-methylbenzyl)sulfanyl]pyridin-2(1H)-one] showed an IC50 of 0.39 µM. O=c1[nH]cc(SCc2cc(F)cc(Cl)c2)cc1O [Example 10, 5-[(3-Chloro-5-fluorobenzyl)sulfanyl]-3-hydroxypyridin-2(1H)-one] was tested, and the IC50 was 0.23 µM. O=c1[nH]cc(SCc2ccc(F)cc2)cc1O [Example 11, 5-[(4-Fluorobenzyl)sulfanyl]-3-hydroxypyridin-2(1H)-one] gave an IC50 of 0.047 µM. For CCc1ccc(CSc2c[nH]c(=O)c(O)c2)cc1 [Example 12, 5-[(4-Ethylbenzyl)sulfanyl]-3-hydroxypyridin-2(1H)-one], the IC50 was 0.079 µM. With O=c1[nH]cc(SCc2ccc(C(F)(F)F)nc2)cc1O [Example 13, 3-Hydroxy-5-({[6-(trifluoromethyl)pyridin-3-yl]methyl}-sulfanyl)pyridin-2(1H)-one] the IC50 was 0.16 µM. Cc1cccnc1CSc1c[nH]c(=O)c(O)c1 [Example 14, 3-Hydroxy-5-{[(3-methylpyridin-2-yl)methyl]sulfanyl}pyridin-2(1H)-one] gave an IC50 of 1.9 µM. Cc1noc(C)c1CSc1c[nH]c(=O)c(O)c1 [Example 15, 5-{[(3,5-Dimethyl-1,2-oxazol-4-yl)methyl]sulfanyl}-3-hydroxypyridin-2(1H)-one] gave an IC50 of 1.9 µM. In the case of Cc1nc(CSc2c[nH]c(=O)c(O)c2)co1 [Example 16, 3-Hydroxy-5-{[(2-methyl-1,3-oxazol-4-yl)methyl]sulfanyl}-pyridin-2(1H)-one], the IC50 is reported as 1.4 µM. With O=c1[nH]cc(SCc2ccccn2)cc1O [Example 17, 3-Hydroxy-5-[(pyridin-2-ylmethyl)sulfanyl]pyridin-2(1H)-one] the IC50 was 0.46 µM. In the case of O=c1[nH]cc(SCc2ccncc2)cc1O [Example 18, 3-Hydroxy-5-[(pyridin-4-ylmethyl)sulfanyl]pyridin-2(1H)-one], the IC50 is reported as 0.1 µM. Compound O=c1[nH]cc(SCc2ccc(Cl)cn2)cc1O [Example 19, 5-{[(5-Chloropyridin-2-yl)methyl]sulfanyl}-3-hydroxypyridin-2(1H)-one] has an IC50 of 0.36 µM. Work on O=c1[nH]cc(SCc2ccc(F)c(F)c2)cc1O [Example 20, 5-[(3,4-Difluorobenzyl)sulfanyl]-3-hydroxypyridin-2(1H)-one] yielded an IC50 of 0.045 µM. Work on COc1ccc(CSc2c[nH]c(=O)c(O)c2)cc1 [Example 21, 3-Hydroxy-5-[(4-methoxybenzyl)sulfanyl]pyridin-2(1H)-one] yielded an IC50 of 0.13 µM. With O=c1[nH]cc(SCc2cccnc2)cc1O [Example 22, 3-Hydroxy-5-[(pyridin-3-ylmethyl)sulfanyl]pyridin-2(1H)-one] the IC50 was 0.25 µM. Cc1ccc(CSc2c[nH]c(=O)c(O)c2)nc1 [Example 23, 3-Hydroxy-5-{[(5-methylpyridin-2-yl)methyl]sulfanyl}pyridin-2(1H)-one] showed an IC50 of 0.49 µM. For O=c1[nH]cc(SCc2cnccn2)cc1O [Example 24, 3-Hydroxy-5-[(pyrazin-2-ylmethyl)sulfanyl]pyridin-2(1H)-one], the IC50 was 1 µM. In the case of COc1ccc(CSc2c[nH]c(=O)c(O)c2)cn1 [Example 25, 3-Hydroxy-5-{[(6-methoxypyridin-3-yl)methyl]-sulfanyl}-pyridin-2(1H)-one], the IC50 is reported as 0.083 µM. With Cc1ccccc1CCc1c[nH]c(=O)c(O)c1 [Example 26, 3-Hydroxy-5-(2-methylphenethyl)pyridin-2(1H)-one] the IC50 was 0.35 µM. O=c1[nH]cc(CCc2ccccc2)cc1O [Example 27, 3-Hydroxy-5-(2-phenylethyl)pyridin-2(1H)-one] was tested, and the IC50 was 0.14 µM. In the case of Cc1cccc(CCc2c[nH]c(=O)c(O)c2)c1 [Example 28, 3-Hydroxy-5-[2-(3-methylphenyl)ethyl]pyridin-2(1H)-one], the IC50 is reported as 0.26 µM. Cc1ccc(CCc2c[nH]c(=O)c(O)c2)cc1 [Example 29, 3-Hydroxy-5-[2-(4-methylphenyl)ethyl]pyridin-2(1H)-one] gave an IC50 of 0.052 µM. O=c1[nH]cc(CCc2ccc(F)cc2)cc1O [Example 30, 5-[2-(4-Fluorophenyl)ethyl]-3-hydroxypyridin-2(1H)-one] showed an IC50 of 0.061 µM. Compound O=c1[nH]cc(CCc2cccc(F)c2)cc1O [Example 31, 5-[2-(3-Fluorophenyl)ethyl]-3-hydroxypyridin-2(1H)-one] has an IC50 of 0.13 µM. In the case of O=c1[nH]cc(CCc2ccccc2F)cc1O [Example 32, 5-[2-(2-Fluorophenyl)ethyl]-3-hydroxypyridin-2(1H)-one], the IC50 is reported as 0.17 µM. Work on O=c1[nH]cc(S(=O)(=O)Cc2ccccc2)cc1O [Example 33, 5-(Benzylsulfonyl)-3-hydroxypyridin-2(1H)-one] yielded an IC50 of 0.49 µM. Work on O=c1[nH]cc(SCc2cccc(F)c2)cc1O [Example 34, 5-[(3-Fluorobenzyl)sulfanyl]-3-hydroxypyridin-2(1H)-one] yielded an IC50 of 0.13 µM. Compound O=c1[nH]c(SCc2ccccc2)ccc1O [Example 35, 6-(benzylsulfanyl)-3-hydroxypyridin-2(1H)-one] has an IC50 of 1.4 µM.
